In publication PMC12040169 (PLOS Biology, 2025):

Test: in vitro
Conditions: human, hela cells, % viability

Compound | viability at 28.5 h, 10 µM
CCCn1c(NC(=O)C2CCCN2S(=O)(=O)CC)nc2ccccc21 (centres unmarked) [CBK295624] | 96.8%
COCCN1CCn2c(nc3cc(NC(=O)c4ccccc4)ccc32)C1 [CBK307410] | 89.4%
CC(Cc1cccs1)NC(=O)c1cc(C2CC2)on1 (centres unmarked) [CBK283244] | 107%
COc1ccc(NC(=O)Nc2nn(Cc3c(F)cccc3Cl)cc2Br)c(OC)c1 [CBK266834] | 83.8%
COc1ccc(NC(=S)N2CCN(C/C=C/c3ccccc3)CC2)cc1OC [CBK266891] | 88.7%
CC(=O)Nc1ccc(/C(C)=N/NC(=O)c2ccc(CN3CCOCC3)cc2)cc1 [CBK262720] | 91.7%
Cc1cc(C)nc(NC(=O)OCc2cc(C)nc(C)c2)c1 [CBK138231] | 87.9%
Cc1ccc(Cn2nc(NC(=O)c3cc(C)on3)c3ccccc32)cc1 [CBK048215] | 90.8%
CN1CCOc2ccccc2C(=O)NC/C=C/CC2(CCCN(Cc3cc[nH]n3)C2)C1=O (centres unmarked) [CBK292175] | 103%
O=C(CN1C(=O)c2ccccc2C1=O)Nc1cc(C(=O)O)cc(C(=O)O)c1 [CBK262024] | 102%
CC(=O)N1CCC(C(=O)Nc2cnc(-c3ccc(F)cc3)c(-c3ccco3)n2)CC1 [CBK037038] | 104%
CCCc1[nH]nc(O)c1-c1cccc2ccccc12 [CBK075125] | 94%
COc1ccc(S(=O)(=O)N2CCCCC2C(=O)O)cc1 (centres unmarked) [CBK077424] | 99.5%
CCC(CC)C(=O)N(C)c1c(C)nc2ccc(C(=O)NCc3ccc(OC)cc3)cn12 [CBK146501] | 97.9%
COc1cc(CNC(=O)NC(=O)C2CCN(C(C)=O)CC2)cc(OC)c1OC [CBK034833] | 105%
Cc1ccccc1N1CCN(C(=O)c2c(C)oc3cc4c(C(=O)N5CCN(c6ccccc6C)CC5)c(C)oc4cc23)CC1 [CBK264833] | 89.2%
OC(Cc1ccccc1)c1cc2n(n1)CCN(Cc1ccsc1)C2 (centres unmarked) [CBK307603] | 89.5%
CC(C)CC(=O)N1C[C@H]2NC(=O)c3ccccc3C(=O)[C@@]2(C)C1 [CBK281659] | 96.1%
C[C@H](c1ccccc1)n1c(=O)[nH]c2ncc(-c3cccc4cccnc34)nc21 [CBK064237] | 44.4%
COc1ccccc1CN(C)CCc1ccccn1 [CBK261741G] | 87.2%
N=C(N)NC1=NC(=O)C(CC(=O)Nc2ccc(Oc3ccccc3)cc2)S1 (centres unmarked) [CBK300482] | 105%
CN1CCN(C(=O)CNS(=O)(=O)c2cc(Br)c(Cl)s2)CC1 [CBK034482] | 94%

Compound | viability at 28.5 h, 10 µM
Cc1cccc(-c2n[nH]c(=S)n2CC(=O)NCc2cn(-c3ccccc3)nc2-c2ccccc2)c1 [CBK297941] | 88.1%
CCS(=O)(=O)c1ccc(O)c(NS(=O)(=O)c2cc(C(=O)O)ccc2Cl)c1 [CBK297531] | 91.1%
COc1cc(-c2cncc(N3CCCC3CO)n2)cc(OC)c1OC (centres unmarked) [CBK065389] | 104%
COc1ccc(-c2nc(-c3cc4ccccc4s3)cnc2N)cc1OC [CBK063963] | 98.6%
O=C(CCOc1ccccc1F)Nc1cnc(-c2ccc(F)cc2)c(-c2ccsc2)n1 [CBK036897] | 99.7%
Cc1n[nH]c(NCc2cccc(Cl)c2Cl)n1 [CBK288037] | 107%
O=C(N[C@H]1CO[C@H]2[C@@H]1OC[C@@H]2Nc1nccc(-c2cccs2)n1)C1CC1 [CBK289517] | 95%
CCC(O)CNC(=O)c1coc(COc2ccc3sc(C)nc3c2)n1 (centres unmarked) [CBK307700] | 90.8%
O=C(CSc1nnc(SCc2cccc3ccccc23)s1)c1ccc(F)cc1 [CBK266218] | 98.9%
Cc1c(C(=O)NC2CCCN(c3ncccn3)C2)cnn1C(C)(C)C (centres unmarked) [CBK305652] | 91.3%
CN1CCN(C(C(=O)O)c2cn(CCC(=O)O)c3ccc(Br)cc23)CC1 (centres unmarked) [CBK286698] | 103%
CCOC(=O)c1[nH]c2ccccc2c1NC(=O)[C@@H]1CCCN1C [CBK160171T] | 84.9%
C[C@@H]1C[C@H](Nc2ccccc2)c2ccccc2N1C(=O)CCC(=O)O [CBK286820] | 95.8%
CCOC(=O)c1sc(NS(=O)(=O)c2ccc(Cl)c(Cl)c2)nc1C [CBK077228] | 92.5%
Cc1cc(C(=O)Oc2cccc(NC3=NS(=O)(=O)c4ccccc43)c2)c2ccccc2n1 [CBK265302] | 96.5%
Nc1cc(=O)[nH]c(=O)n1CCc1c[nH]c2ccccc12 [CBK288190] | 98.1%
O=C(NC1CCS(=O)(=O)C1)/C(=C\c1ccccc1)NC(=O)c1ccc([N+](=O)[O-])cc1 (centres unmarked) [CBK261034] | 106%
CCN(CC)CCNC(=O)c1c(O)c2ccccc2n(Cc2ccccc2)c1=O [CBK291199] | 113%
COc1ccc2cc(CNc3ccc(F)c([N+](=O)[O-])c3)c(Cl)nc2c1 [CBK295133] | 93.1%
Cc1cc(/C=C\c2nc(O)c([N+](=O)[O-])c(=O)[nH]2)c(C)n1-c1ccc(C(=O)O)cc1 [CBK267334] | 96.4%
CCCC(=O)Nc1ccc(OCc2nnc(C)o2)c(C(C)=O)c1 [CBK305943] | 92.9%
O=C(Nc1cccc(S(=O)(=O)N2CCCC2)c1)c1nc[nH]n1 [CBK268353] | 103%

Compound | viability at 28.5 h, 10 µM
CN1CCN(C(=O)c2cc(-c3ccc(C(=O)N4CCOCC4)cc3)cnc2N)CC1 [CBK158584] | 85.6%
COC(=O)NC(=O)N1CCN(c2c(Cl)cncc2Cl)CC1 [CBK043398] | 108%
COc1ccc(N2CCN(c3cc(-c4cccc([N+](=O)[O-])c4)ncn3)CC2)cc1OC [CBK091031] | 86.4%
COC(=O)c1ccccc1NC(=O)CC1Nc2ccccc2NC1=O (centres unmarked) [CBK269276A] | 91.9%
CCSc1nnc(-c2ccc([N+](=O)[O-])cc2)n1CC(C)C [CBK076724T] | 108%
Nc1ncc(-c2ccc(C(=O)N3CCOCC3)cc2)cc1C(=O)Nc1ccncc1 [CBK160202] | 93.6%
CN1CCN(C(=O)C2CCCN(S(=O)(=O)c3ccc(Br)cc3)C2)CC1 (centres unmarked) [CBK269006] | 107%
C[C@H](c1ccccc1)n1c(=O)[nH]c2ncc(-c3cccc4ccccc34)nc21 [CBK064241] | 101%
FC(F)(F)c1ccc(OCc2ccc(Cl)c(Cl)c2)nc1 [CBK115831] | 90.2%
COc1ccc(C(=O)N2CC[C@H]3NC(=O)N(Cc4ccccc4)C(=O)[C@H]32)cc1 [CBK289293] | 94.1%
CNC(=O)c1ccc(-c2cccc(OC(F)(F)F)c2)nc1NCCOC [CBK106000] | 96.4%
O=C(NCc1ccc(OC2CCNCC2)cc1)c1cnccn1 [CBK036359T] | 104%
CC(CC(=O)O)CC(=O)Nc1ccc(C(=O)O)cc1 (centres unmarked) [CBK265560] | 103%
O=C(O)C1CCN(C2C(=O)Nc3ccc(Cl)cc3C2c2ccccc2)CC1 (centres unmarked) [CBK287210] | 94.4%
Cc1cc(C2CCCCCN2S(=O)(=O)c2ccc(F)cc2)on1 (centres unmarked) [CBK284668] | 82.2%
O=C(Cn1c(-c2cncs2)nc2ccccc21)NCc1ccccc1 [CBK264705] | 103%
Cc1noc(C)c1S(=O)(=O)Nc1cccc(-c2cnco2)c1 [CBK067108] | 97.1%
C[C@]12CN(Cc3cccs3)C[C@H]1NC(=O)c1ccccc1C2=O [CBK284702] | 89.2%
Cc1c(C(N)=O)sc2ncn(CC(=O)NCCc3ccccc3)c(=O)c12 [CBK268514] | 90.4%
Cc1ccc(O)c(CN(CCCn2ccnc2)CC2CC=CCC2)c1 (centres unmarked) [CBK282829] | 86.7%
Cc1cc(C[C@@H]2COC[C@H]2NCc2c(F)cccc2Cl)on1 [CBK282994] | 83.4%
O=C(Nc1cc([N+](=O)[O-])ccc1O)c1ccc2c(c1)C(=O)N(Cc1cccnc1)C2=O [CBK266770] | 92.7%

Compound | viability at 28.5 h, 10 µM
CCN1C(=O)C2(CC(=O)N(CC3CCCCC3)C2=O)c2cc(C)ccc21 (centres unmarked) [CBK075216] | 98.2%
Cc1ccc(S(=O)(=O)Nc2ccc(Nc3cc(-c4ccc(CNC(=O)OC(C)(C)C)cc4)ncn3)cc2)cc1 [CBK090967] | 96.8%
Nc1ccc2cc(-c3ccsc3)cnc2n1 [CBK081167] | 101%
CC(=O)CSc1nc2c(c(=O)n(C)c(=O)n2C)n1CCCc1ccccc1 [CBK269581] | 84.6%
CCCC(=O)N1CCCCC1c1nn(C)cc1-c1cc(C)no1 (centres unmarked) [CBK283407] | 106%
CC(C)(C)c1ccc(-c2cnc(N)c(-c3ccc(C(=O)N4CCOCC4)cc3)n2)cc1 [CBK084543A] | 98.2%
c1ccc(Oc2ccccc2-c2cc(N3CCN(c4ccccn4)CC3)ncn2)cc1 [CBK091083] | 91.5%
O=C(Nc1ccc(S(=O)(=O)N2CCOCC2)cc1)c1ccc(CN2CCc3ccccc3C2)cc1 [CBK266550] | 96.2%
OCCNc1cncc(-c2ccc3c(c2)OCO3)n1 [CBK065979] | 85.6%
O=C(c1cccs1)N1C[C@@H]2CCCCN(C3CCOCC3)[C@@H]2C1 [CBK285503] | 107%
Cn1nnnc1NC(=O)c1ccccc1F [CBK058776] | 102%
CCS(=O)(=O)c1ccc(C(=O)Nc2nc3c(F)cc(F)cc3s2)cc1 [CBK287727] | 106%
O=C(CC1C(=O)Nc2ncnn21)Nc1ccccc1 (centres unmarked) [CBK288071] | 90.7%
Cc1ccc(C2(O)CC3CCC(C2)N3C(=O)C2CCC2)cc1 (centres unmarked) [CBK103860] | 99.2%
CCc1nc(CN2CCCC(NC(C(N)=O)c3ccccc3)C2)no1 (centres unmarked) [CBK305348] | 97.4%
O=C(Cc1c[nH]cn1)N1CCN(c2ncccn2)CC1 [CBK144527] | 105%
CN1CCC(N(C)C(=O)NCc2cccnc2)C1 (centres unmarked) [CBK156001] | 93.5%
CN(C)CCNC(=O)c1ccc2[nH]ccc2c1 [CBK149062] | 112%
COc1cccc(NC(=O)CSc2ccc(Cl)cc2)c1 [CBK263811] | 85.6%

Same assay, conditions: human, hela cells, % viability, bulk resorufin, single well

Compound | viability at 28.5 h, 10 µM
Cc1ccccc1N1C(=O)NC(=O)/C(=C/NCCCn2ccnc2)C1=O [CBK261829] | 107%
